For the data set, the system named is germ-free Swiss-Webster mice. Kind of data set: Fecal or culture transplantation into germ-free mice followed by OGTT. The data set is classed as in vivo. The text has this:
C57Bl/6 WT adult male mice were randomly assigned (without blinding) to treatment groups and were given commercial artificial sweeteners (saccharin-, sucralose- or aspartame-based) or pure saccharin (Sigma Aldrich) in drinking water and fed a high-fat (HFD D12492, 60% Kcal from fat, Research Diets) or standard polysaccharide normal chow (NC) diet (Harlan-Teklad). Compared groups were always fed from the same batch of diet. For antibiotic treatment, mice were given a combination of ciprofloxacin (0.2 gl^−1) and metronidazole ([…]) or vancomycin (0.5 gl^−1) in their drinking water. All antibiotics were obtained from Sigma Aldrich. Adult male outbred Swiss-Webster mice (a widely used mouse strain in germ-free experiments) served as recipients for fecal transplants and were housed in sterile isolators (Park Biosciences). For fecal transplantation experiments, 200 mg of stool (from mouse pellets or human swabs) was resuspended in 5 ml of PBS under anaerobic conditions, vortexed for 3 minutes and allowed to settle by gravity for 2 minutes. Recipient mice were gavaged with 200 μl of the supernatant and maintained on standard NC diet and water throughout the experiment.
Mice were fasted for 6 hours during the light phase, with free access to water. In all groups of mice where the drinking regime was other than water, it was substituted for water for the period of the fasting and glucose or insulin tolerance test. Blood from the tail vein was used to measure glucose levels using a glucometer (Bayer) immediately before and 15, 30, 60, 90 and 120 minutes after oral feeding with 40 mg glucose (J.T. Baker) or intra-peritoneal injection with 0.1 Ukg^−1 Insulin (Biological Industries). Plasma fasting insulin levels were measured in sera collected immediately before the start of GTT using ELISA (Ultra Sensitive Mouse Insulin ELISA Kit, Crystal Chem).
pooled fecal matter from naïve adult WT C57Bl/6 male mice was resuspended in 5 ml PBS in an anaerobic chamber (Coy Laboratory Products, 75% N2, 20% CO2, 5% H2), vortexed for 3 minutes and allowed to settle by gravity for 2 minutes. […] were added to a tube containing Chopped Meat Carbohydrate Broth, PR II (BD) and […] of a 5 mgml-1 saccharin solution or an equal volume of PBS. Every 3 days, 500 ml of culture were diluted to fresh medium containing saccharin or PBS. After 9 days, cultures were used for inoculation of germ-free mice.

From patent publication US20190022152A1, “MICROBIOME RESPONSE TO AGENTS” (Yeda Research and Development Co., Ltd., priority 2014, published 2019) come the findings set out here.

With `O=C1NS(=O)(=O)c2ccccc21` [saccharin], the “glucose tolerance of germ-free recipients” value reads like this: (D7 (post exposure) vs D1 stool from human NAS responders after 7 days commercial saccharin, P<0.004, P<0.02) “significant glucose intolerance”; (D7 vs D1 stool from two human NAS non-responders) “normal glucose tolerance”; (donors HFD-consuming mice drinking pure saccharin vs water, p<0.004) “replicated the glucose intolerance phenotype”; (recipients of in vitro saccharin-treated (5 mgml^−1) fecal culture vs control culture, 6 days, p<0.002) “significantly higher glucose intolerance”.
